Data as given in patent US10865216B2, “Tricyclic Gyrase inhibitors” (MERCK SHARP & DOHME CORP., priority 2012, dated 2020).
Converted amounts (≈) assume the structure as drawn. Where two headings read alike, the source gives them in different places. Each block holds one compound with its values, some of them ahead of it.

What was measured:
[1] = tested on: S. aureus ATCC 13709; test: MIC, S. aureus ATCC 13709; assay type: cell-based; conditions: for MIC: Staphylococcus aureus
[2] = tested on: E. coli ATCC 25922; test: MIC, E. coli ATCC 25922; assay type: cell-based; conditions: for MIC: Escherichia coli; for EC MIC: Table 13, L = NH
[3] = ATCC13709, S. aureus, Alamar Blue read after overnight incubation at 35° C., read-out: MIC Sa
[4] = ATCC25922, E. coli, Alamar Blue read after overnight incubation at 35° C., read-out: MIC Ec
[5] = ATCC13709, Table 16, new R4 substituents, read-out: SA MIC
[6] = ATCC25922, Table 16, new R4 substituents, EC8 not defined, read-out: EC8 MIC
[7] = S. aureus, Alamar Blue read after overnight incubation at 35° C.
[8] = E. coli, Alamar Blue read after overnight incubation at 35° C.

Compound: CCOC(=O)c1csc(Nc2nc(N3C[C@H]4C[C@@H]3C[C@H]4N)c3c(n2)[nH]c2c(NC)cc(F)cc23)n1 [Compound 10.42]
MIC Sa ([1]; Table 18, Sa): ≤ 0.5 µg/mL
MIC Ec ([2]; Table 18, Ec): 1 µg/mL (≈ 2.01 µM)

Compound: CNc1cccc2c1[nH]c1nc(Oc3cncc(C#N)c3)cc(N3CC[C@@H](N)C3)c12 [Compound 3.3]
MIC [1, 3]: 0.5 µg/mL (≈ 1.25 µM)
MIC [2, 4]: 1 µg/mL (≈ 2.5 µM)

Compound: CNc1cccc2c1[nH]c1nc(Sc3cncnc3)nc(N3CC4C(N)C4C3)c12 (stereo not shown) [Compound 1.43]
MIC [1, 3]: 2 µg/mL (≈ 4.94 µM)
MIC [2, 4]: 8 µg/mL (≈ 19.8 µM)

Compound: CNc1cc(F)cc2c1[nH]c1nc(Oc3cnc(C)nc3)nc(N3CCC(F)(CN)C3)c12 (stereo not shown)
MIC [1, 5]: ≤ 0.5 µg/mL
MIC [2, 6]: ≤ 0.5 µg/mL

Compound: CNc1cc(F)cc2c1[nH]c1nc(Nc3cnn4ccnc4c3)nc(N3C[C@H]4C[C@@H]3C[C@H]4N)c12 [Compound 10.46]
MIC Sa ([1]; Table 18, Sa): ≤ 0.5 µg/mL
MIC Ec ([2]; Table 18, Ec): ≤ 0.5 µg/mL

Compound: CNc1cccc2c1[nH]c1nc(Sc3cnc4cccnc4c3)nc(N3CC4CNC(C4)C3)c12 (stereo not shown) [Compound 1.47]
MIC [1, 3]: ≤ 0.5 µg/mL
MIC [2, 4]: 2 µg/mL (≈ 4.27 µM)

Compound: CNc1cccc2c1[nH]c1nc(Oc3cnc4cccnc4c3)cc(N3CC4C(N)C4C3)c12 (stereo not shown) [Compound 3.34]
MIC [1, 3]: ≤ 0.5 µg/mL
MIC [2, 4]: ≤ 0.5 µg/mL

Compound: CNc1cc(F)cc2c1[nH]c1nc(Cc3cnn(C)c3)nc(N3C[C@H]4C[C@@H]3C[C@H]4N)c12 [drawing 1734]
SA MIC ([1]; Table 11, compounds wherein L = CH2): 1 µg/mL
EC8 MIC ([2]; Table 11, L = CH2, EC8 not defined): 8 µg/mL

Compound: CNc1cc(F)c(F)c2c1[nH]c1nc(Oc3ncc(C)cn3)nc(N3CC4C(N)C4C3)c12 (stereo not shown) [Compound 5.04]
MIC Sa [1, 7]: ≤0.5 µg/mL
MIC Ec [2, 8]: ≤0.5 µg/mL

Compound: CNc1cc(F)cc2c1[nH]c1nc(Oc3cnc(C)nc3)nc(N3CC4C(C3)C4NC(=O)CN)c12 (stereo not shown) [Compound 4.078]
MIC Sa [1, 7]: ≤0.5 µg/mL
MIC Ec [2, 8]: 8 µg/mL (≈ 16.8 µM)

Compound: CNc1cc(F)cc2c1[nH]c1nc(Nc3cccnc3)nc(N3C[C@H]4C[C@@H]3C[C@H]4N)c12 [Compound 10.44]
MIC Sa ([1]; Table 18, Sa): ≤ 0.5 µg/mL
MIC Ec ([2]; Table 18, Ec): ≤ 0.5 µg/mL

Compound: CNc1cc(F)c(C)c2c1[nH]c1nc(Oc3cnc(C)nc3)nc(NCCCN)c12 [Compound 6.21]
MIC Sa [1, 7]: >16 µg/mL
MIC Ec [2, 8]: >16 µg/mL

Compound: CNc1cccc2c1[nH]c1nc(Sc3cnc4ccc[n+]([O-])c4c3)nc(N3CC4C(N)C4C3)c12 (stereo not shown) [Compound 1.23]
MIC Sa [1, 7]: ≤0.5 µg/mL
MIC Ec [2, 8]: ≤0.5 µg/mL

Continued, values first:

MIC [1, 3]: 1 µg/mL (≈ 2.58 µM)
MIC [2, 4]: 2 µg/mL (≈ 5.16 µM)
Compound: CNc1cccc2c1[nH]c1nc(Oc3cncnc3)cc(N3CC4C(N)C4C3)c12 (stereo not shown) [Compound 3.28]

MIC [1, 3]: 4 µg/mL (≈ 8.94 µM)
MIC [2, 4]: 16 µg/mL (≈ 35.8 µM)
Compound: CNc1cc(F)cc2c1[nH]c1nc(Oc3cnc(C)nc3)nc(-c3cccc(CN)c3F)c12 [Compound 4.447]

MIC Sa [1, 7]: ≤0.5 µg/mL
MIC [2, 4]: ≤ 0.5 µg/mL
Compound: CNc1cccc2c1[nH]c1nc(Sc3cnc4ccc[n+]([O-])c4c3)nc(N3CC4C(N)C4C3)c12 (stereo not shown) [Compound 1.13]

MIC Sa [1, 7]: ≤0.5 µg/mL
MIC Ec [2, 8]: ≤0.5 µg/mL
Compound: CNc1cc(F)cc2c1[nH]c1nc(Oc3cnc(SC)nc3)nc(N3CC4CC(N)C4C3)c12 (stereo not shown) [Compound 4.196]

MIC Sa [1, 7]: 2 µg/mL (≈ 5.3 µM)
MIC Ec [2, 8]: 32 µg/mL (≈ 84.8 µM)
Compound: COc1cccc2c1[nH]c1nc(Oc3cncnc3)nc(N3CC[C@@H](N)C3)c12 [Compound 2.10]

SA MIC ([1]; Table 13, L = NH): ≤ 0.5 µg/mL
EC MIC [2]: ≤ 0.5 µg/mL
Compound: CNc1cc(F)cc2c1[nH]c1nc(Nc3cnc4ccnn4c3)nc(N3C[C@H]4CC3C[C@H]4N)c12

MIC [1, 5]: ≤ 0.5 µg/mL
MIC [2, 6]: ≤ 0.5 µg/mL
Compound: CCC1(CN)CCN(c2nc(Oc3cnc(C)nc3)nc3[nH]c4c(NC)cc(F)cc4c23)C1 (stereo not shown)

MIC Sa [1, 7]: ≤0.5 µg/mL
MIC Ec [2, 8]: 1 µg/mL (≈ 2.09 µM)
Compound: CNc1cc(F)cc2c1[nH]c1nc(Oc3cnc4c(c3)OCCO4)nc(N3CC4CC(N)C4C3)c12 (stereo not shown) [Compound 4.294]

SA MIC ([1]; Table 13, L = NH): ≤ 0.5 µg/mL
EC MIC [2]: ≤ 0.5 µg/mL
Compound: CNc1cc(F)cc2c1[nH]c1nc(Nc3cnc(C)nc3)nc(N3C[C@H]4CC3C[C@H]4N)c12

MIC [1, 3]: ≤ 0.5 µg/mL
MIC [2, 4]: 1 µg/mL (≈ 2.15 µM)
Compound: CNc1cc(F)cc2c1[nH]c1nc(Oc3cnc(CCO)nc3)nc(N3CC4C[C@@H](N)C4C3)c12 (stereo partly shown) [Compound 4.429]

SA MIC ([1]; Table 12, Z is C and connected to R4): ≤ 0.5 µg/mL
EC8 MIC ([2]; Table 12, Z is C and connected to R4, EC8 not defined): > 16 µg/mL
Compound: CNc1cc(F)c2c3c1[nH]c1nc(Oc4cnc(N)nc4)nc(c13)-c1ccccc1NC2

MIC Sa [1, 7]: ≤0.5 µg/mL
MIC Ec [2, 8]: 2 µg/mL (≈ 4.22 µM)
Compound: CNc1cc(F)cc2c1[nH]c1nc(Oc3cnc4c(c3)ncn4C)nc(N3CC4CC(N)C4C3)c12 (stereo not shown) [Compound 4.226]

MIC Sa [1, 7]: 1 µg/mL (≈ 2.37 µM)
MIC Ec [2, 8]: 8 µg/mL (≈ 18.9 µM)
Compound: CNc1cc(F)cc2c1[nH]c1nc(Oc3cnc(C)nc3)nc(N3C[C@H](N)C[C@@H]3C)c12 [Compound 4.115]

MIC Sa ([1]; Table 18, Sa): 0.03 µg/mL (≈ 0.0669 µM)
MIC Ec ([2]; Table 18, Ec): 2 µg/mL (≈ 4.46 µM)
Compound: CNc1cc(F)cc2c1[nH]c1nc(Oc3cnc(C)nc3)nc(N3CC4(CC/C4=N\O)C3)c12 [Compound 10.61]

MIC Sa ([1]; Table 18, Sa): ≤ 0.5 µg/mL
MIC Ec ([2]; Table 18, Ec): ≤ 0.5 µg/mL
Compound: CNc1cc(F)c(F)c2c1[nH]c1nc(Oc3cnc(C(C)O)nc3)nc(N3CC4(CCCC4N)C3)c12 (stereo not shown) [Compound 10.103]

MIC Sa ([1]; Table 18, Sa): ≤ 0.5 µg/mL
MIC Ec ([2]; Table 18, Ec): ≤ 0.5 µg/mL
Compound: CNc1cc(F)cc2c1[nH]c1nc(Oc3ccc4ccnn4c3)nc(N3C[C@H]4C[C@@H](N)[C@H]4C3)c12 [Compound 10.53]
